Reference: the NIST ThermoML archive (doi:10.1016/j.fluid.2012.08.005)

Test: xn = mol fraction of the nth substance listed
Conditions: 101 kPa, Liquid, Vibrating tube method

Cc1ccccc1 [toluene] + c1ccoc1
x2 = 0
Conditions	mass density [kg/m3]
293.15 K	868.2
298.15 K	864.5
303.15 K	861

CCCCCC [hexane] + c1ccoc1
x2 = 0
Conditions	mass density [kg/m3]
293.15 K	660.8
298.15 K	657
303.15 K	653.3

c1ccoc1 [furan] + Cc1ccccc1
mass density [kg/m3]
Conditions	x1 = 0.1	x1 = 0.199	x1 = 0.387	x1 = 0.507	x1 = 0.591	x1 = 0.761	x1 = 0.89	x1 = 1
293.15 K	873.3	878.9	889.8	897.7	903.8	917.5	929.2	939.8
298.15 K	869.5	875	885.6	893.2	899.1	912.4	923.7	934
303.15 K	865.9	871.2	881.5	888.9	894.6	907.5	918.4	928.3

c1ccoc1 [furan] + CCCCCC
mass density [kg/m3]
Conditions	x1 = 0.12	x1 = 0.199	x1 = 0.365	x1 = 0.511	x1 = 0.623	x1 = 0.786	x1 = 0.908	x1 = 1
293.15 K	677.8	690.2	721.4	755.2	786.2	841.2	891.9	939.8
298.15 K	673.9	686.1	717	750.5	781.4	835.9	886.4	934
303.15 K	670	682.2	712.8	746	776.6	830.8	881	928.3
